Reference: the supplement of paper PMC10307832

Assays:
Assay in all cases: relative viability (nuclei count vs DMSO), 5 days (fraction); higher = more cells survive
[1] = compound: CCn1c(-c2nonc2N)nc2cnc(Oc3cccc(NC(=O)c4ccc(OCCN5CCOCC5)cc4)c3)cc21 + Cc1nc(NC(=O)N2CCC[C@H]2C(N)=O)sc1-c1ccnc(C(C)(C)C(F)(F)F)c1 [Alpelisib] (partner 2 µM)
How it was run: (§1)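 Relative viability divides the nuclei count in treated wells by that in vehicle wells. Lung cancer cell lines were seeded in 1536-well plates, dosed by pin tool the next day, and fixed and stained after 5 days in one step with final 0.05% Triton X-100, 1% formaldehyde and 1 ug/ml Hoechst. Dosing was a single drug or a fixed anchor-drug dose plus five library-drug doses (not always all listed) in √10 steps, and values are medians of duplicate plates imaged at 4×.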

[2] = compound: CCn1c(-c2nonc2N)nc2cnc(Oc3cccc(NC(=O)c4ccc(OCCN5CCOCC5)cc4)c3)cc21 + CC(=O)Nc1cccc(-n2c(=O)n(C3CC3)c(=O)c3c(Nc4ccc(I)cc4F)n(C)c(=O)c(C)c32)c1 [Trametinib] (partner 0.02 µM)
How it was run: as §1

[3] = compound: CCC1=CN=CN=C1N2CCN(CC2)CC3=NC4=C(N3)C=C(C=C4)C(F)(F)F + CC(=O)c1c(C)c2cnc(Nc3ccc(N4CCNCC4)cn3)nc2n(C2CCCC2)c1=O [Palbociclib] (partner 0.5 µM)
How it was run: as §1

Mirin + Luminespib = compound: N=C1NC(=O)/C(=C/c2ccc(O)cc2)S1 [Mirin] + CCNC(=O)c1noc(-c2cc(C(C)C)c(O)cc2O)c1-c1ccc(CN2CCOCC2)cc1 [Luminespib] (partner 0.01 µM)
How it was run: as §1

Cell Line	relative viability ([1]; first compound 0.04 µM)	relative viability ([1]; first compound 0.1265 µM)	relative viability ([1]; first compound 0.4 µM)	relative viability ([1]; first compound 1.265 µM)	relative viability ([1]; first compound 4 µM)	relative viability ([2]; first compound 0.04 µM)	relative viability ([2]; first compound 0.1265 µM)	relative viability ([2]; first compound 0.4 µM)	relative viability ([2]; first compound 1.265 µM)	relative viability ([2]; first compound 4 µM)	relative viability ([3]; first compound 0.04 µM)	relative viability ([3]; first compound 0.1265 µM)	relative viability ([3]; first compound 0.4 µM)	relative viability ([3]; first compound 1.265 µM)	relative viability ([3]; first compound 4 µM)	relative viability (Mirin + Luminespib; first compound 0.25 µM)	relative viability (Mirin + Luminespib; first compound 0.7906 µM)	relative viability (Mirin + Luminespib; first compound 2.5 µM)	relative viability (Mirin + Luminespib; first compound 7.906 µM)	relative viability (Mirin + Luminespib; first compound 25 µM)
SW 1573	0.968	0.823	0.48	0.397	0.276	0.716	0.577	0.478	0.229	0.19	0.345	0.406	0.384	0.262	0.32	0.228	0.272	0.247	0.201	0.205
LOU-NH91	0.759	0.619	0.652	0.55	0.566	0.751	0.697	0.617	0.543	0.487	0.523	0.565	0.541	0.542	0.558	0.304	0.301	0.351	0.322	0.295
LXF-289	1.1	1.12	1	0.96	0.941	0.761	0.75	0.685	0.667	0.754	0.624	0.583	0.615	0.635	0.559	0.662	0.689	0.651	0.666	0.634
NCI-H1299	0.991	0.891	0.836	0.912	0.861	–	–	–	–	–	–	–	–	–	–	–	–	–	–	–
HARA	0.831	0.797	0.756	0.395	0.485	0.494	0.874	0.687	0.333	0.254	0.281	0.314	0.283	–	0.295	0.808	–	0.693	0.773	0.372
LU99A	0.769	0.642	0.447	0.51	0.46	0.569	0.595	0.567	0.584	0.497	0.428	0.431	0.378	0.439	0.435	0.199	0.207	0.225	0.209	0.211
201T	1.02	1.01	0.966	1.05	0.954	0.719	0.706	0.749	0.697	0.698	0.331	0.348	0.367	0.375	0.344	1.05	1.11	1.08	1.09	1.14
HCC-827	1.11	0.973	0.996	1.07	0.947	0.586	0.662	0.683	0.573	0.689	0.497	0.53	0.498	0.431	0.468	0.673	0.665	0.724	0.841	1.03
NCI-H1666	1.45	1.21	1.06	0.606	0.513	0.95	1.09	0.851	0.582	0.528	0.609	0.609	0.669	0.659	0.608	1.03	1.13	1.01	0.936	0.949
